Results: PMC5865150, “Structure and evolution of the Fam20 kinases” (Nature Communications, 2018)
Changes are numbered by the printed parent chain. Names and notes keep the numbering of the source.

B1: purified human Fam20C (residues 63-584) of the solution studies (domain or fragment, UniProt Q8IXL6 63-584, looked up)
chain: VRGRPGEPPAASSAAGDAGWPNKHTLRILQDFSSDPSSNLSSHSLEKLPPAAEPAERALRGRDPGALRPHDPAHRPLLRDPGPRRSESPPGPGGDASLLARLFEHPLYRVAVPPLTEEDVLFNVNSDTRLSPKAAENPDWPHAGAEGAEFLSPGEAAVDSYPNWLKFHIGINRYELYSRHNPAIEALLHDLSSQRITSVAMKSGGTQLKLIMTFQNYGQALFKPMKQTREQETPPDFFYFSDYERHNAEIAAFHLDRILDFRRVPPVAGRMVNMTKEIRDVTRDKKLWRTFFISPANNICFYGECSYYCSTEHALCGKPDQIEGSLAAFLPDLSLAKRKTWRNPWRRSYHKRKKAEWEVDPDYCEEVKQTPPYDSSHRILDVMDMTIFDFLMGNMDRHHYETFEKFGNETFIIHLDNGRGFGKYSHDELSILVPLQQCCRIRKSTYLRLQLLAKEEYKLSLLMAESLRGDQVAPVLYQPHLEALDRRLRVVLKAVRDCVERNGLHSVVDDDLDTEHRAASAR
notes: human Fam20C, residues 63-584; otherwise the same construct as m2 and m8; also called WT Fam20C; hsFam20C; source: High Five insect cells (baculovirus), conditioned medium, purified
B2: human Fam20A (residues 69-529), untagged (domain or fragment, UniProt Q96MK3 69-529, looked up)
chain: HNFSRTEPRTEPAGGSHSGSSSKLQALFAHPLYNVPEEPPLLGAEDSLLASQEALRYYRRKVARWNRRHKMYREQMNLTSLDPPLQLRLEASWVQFHLGINRHGLYSRSSPVVSKLLQDMRHFPTISADYSQDEKALLGACDCTQIVKPSGVHLKLVLRFSDFGKAMFKPMRQQRDEETPVDFFYFIDFQRHNAEIAAFHLDRILDFRRVPPTVGRIVNVTKEILEVTKNEILQSVFFVSPASNVCFFAKCPYMCKTEYAVCGNPHLLEGSLSAFLPSLNLAPRLSVPNPWIRSYTLAGKEEWEVNPLYCDTVKQIYPYNNSQRLLNVIDMAIFDFLIGNMDRHHYEMFTKFGDDGFLIHLDNARGFGRHSHDEISILSPLSQCCMIKKKTLLHLQLLAQADYRLSDVMRESLLEDQLSPVLTEPHLLALDRRLQTILRTVEGCIVAHGQQSVIVDGPVEQ
notes: human Fam20A, pseudokinase, residues 69-529; Crystallised and kept with 0.25 mM ATP; also called hsFam20A; source: High Five insect cells (baculovirus), conditioned medium, purified (Ni-NTA, TEV digestion, Resource Q, size exclusion); not shown: His6, N-terminal, cleaved; MBP, N-terminal, cleaved
B3: Fam20A E299G/I300S (domain or fragment, human, UniProt Q96MK3 69-529, looked up)
chain: B2 chain with E231G, I232S
notes: human Fam20A, residues 69-529; The mutations create a site for N-linked glycosylation (Asn298-Gly299-Ser300); The limits are those of the only insect-cell Fam20A construct told in the methods; source: High Five insect cells (baculovirus), conditioned medium, purified as the WT protein
B4: ceFam20 (Fam20C ortholog of Caenorhabditis elegans) (enzyme)
chain: SLPHQPIPPSLGEKDLSDPFNFLFSSNKITLRKLYDLTKNVDFDQLRQNECKKNITLSKFWEKSEQRNVPEDDNWERFYSNIGSCSVYSDDQMIDNLLHDLNTSPIKHVHIMDGGTQVKFVFTFKNDKQAVFKPMRFGRDYESDPNHFYFSDFERHHAEIATFHLDRVLGFRRAIPTVGRVLNMTTELFEKAEKKLKKTFFFSPAKNFCFVSRCDYYCDTTHAICGLPDMKEGSVQVFLPDESAVPRKHNRSPYRRTYSKKNQVAEWQSSMNYCTDKVKTKRQYAHGRRLLDLVDIHILDYLIGNQDRHHFESFNVFNDLPSYAIHLDHGRAFGRSDFDDDDIILPLRQCCILRPSTFQTLMNFYSTPKSLTKALHESLSKDPAHPILAYKHYPAMERRLAKIMSHILECFESRGVAEVLVAEYNNPDVSDAEQNDEEQSEEHQDKKDDKKTV
notes: C. elegans Fam20 (ceFam20)

Tests used:
Fam20A−drFam20C complex = target: T1, Fam20A−drFam20C complex (Homo sapiens, UniProt Q96MK3); assay: X-ray crystal structure, […] Å; type: binding; conditions: 0.25 mM ATP; ATP-1 bound to Fam20A in inverted orientation
T1 construct: human Fam20A residues 69-529 with zebrafish Fam20C residues 124-560, High Five cells, His6-MBP tags removed with TEV; heterotetramer; with Extracellular serine/threonine protein kinase FAM20C (Danio rerio)
T1 sequence (Q96MK3 69-529): B2 chain
T1 sequence (E7FBB8 26-545 partner): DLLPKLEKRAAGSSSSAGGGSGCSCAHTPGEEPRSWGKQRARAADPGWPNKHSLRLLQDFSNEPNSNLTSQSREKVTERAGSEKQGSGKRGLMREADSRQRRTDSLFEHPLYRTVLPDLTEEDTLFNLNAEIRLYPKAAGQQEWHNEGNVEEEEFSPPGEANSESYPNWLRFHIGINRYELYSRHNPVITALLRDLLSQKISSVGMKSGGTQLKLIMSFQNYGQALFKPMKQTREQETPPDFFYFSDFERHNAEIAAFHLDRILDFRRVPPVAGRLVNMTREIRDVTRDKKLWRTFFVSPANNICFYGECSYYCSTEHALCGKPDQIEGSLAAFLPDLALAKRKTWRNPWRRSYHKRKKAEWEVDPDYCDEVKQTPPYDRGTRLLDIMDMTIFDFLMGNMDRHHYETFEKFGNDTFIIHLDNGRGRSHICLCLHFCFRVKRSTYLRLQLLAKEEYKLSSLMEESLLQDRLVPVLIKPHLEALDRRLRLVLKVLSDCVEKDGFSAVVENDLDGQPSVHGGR

[1] = target: T2, human Fam20A−Fam20C complex (Homo sapiens, UniProt Q96MK3); assay: X-ray crystal structure, […] Å; type: binding; conditions: 0.25 mM ATP; ATP-1 bound to Fam20A in inverted orientation; ATP-2 bound to Fam20A at a second site, possibly a crystallization artifact
T2 construct: Fam20A residues 69-529 and Fam20C residues 63-584, High Five cells, His6-MBP tags removed with TEV; heterodimer in crystal; with Extracellular serine/threonine protein kinase FAM20C
T2 sequence (Q96MK3 69-529): B2 chain
T2 sequence (Q8IXL6 63-584 partner): B1 chain

human Fam20B (hsFam20B) [2] = target: T3, human Fam20B (hsFam20B) (Homo sapiens, UniProt O75063, K312R); assay: […] incorporation from [γ-32P]ATP, Sep-Pak C18, scintillation counting; type: biochemical; conditions: 100 uM Gal-Xyl-benzyl, 100 uM ATP, 10 mM MnCl2, pH 7.5, 30 °C; mutant activity completely abolished
T3 construct: residues 55-402, His6-MBP fusion secreted from High Five insect cells, Ni-NTA; monomer
T3 sequence (O75063 55-402 K312R): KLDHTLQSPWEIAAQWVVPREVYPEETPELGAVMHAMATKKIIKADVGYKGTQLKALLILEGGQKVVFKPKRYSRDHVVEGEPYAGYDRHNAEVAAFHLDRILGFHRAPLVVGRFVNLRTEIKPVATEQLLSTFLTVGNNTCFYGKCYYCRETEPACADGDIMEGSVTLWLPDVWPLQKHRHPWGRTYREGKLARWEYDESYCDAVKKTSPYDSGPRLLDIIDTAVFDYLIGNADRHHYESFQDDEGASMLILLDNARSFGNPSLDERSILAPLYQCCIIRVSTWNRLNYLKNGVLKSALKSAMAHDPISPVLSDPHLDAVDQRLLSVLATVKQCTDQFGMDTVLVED

aqFam20 = target: T4, aqFam20 (Amphimedon queenslandica, UniProt A0A1X7UVU4); assay: as above; type: biochemical; conditions: 100 uM Gal-Xyl-benzyl, 100 uM ATP, 10 mM MnCl2, pH 7.5, 30 °C
T4 construct: gene 100636703; residues 31-418, His6-MBP fusion secreted from High Five insect cells, cloned from cDNA library; monomer

human Fam20B (hsFam20B) [3] = target: T5, human Fam20B (hsFam20B) (Homo sapiens, UniProt O75063); assay: as above; type: biochemical; conditions: 100 uM Gal-Xyl-benzyl, 100 uM ATP, 10 mM MnCl2, pH 7.5, 30 °C
T5 construct: residues 55-402, His6-MBP fusion secreted from High Five insect cells, Ni-NTA; monomer
T5 sequence (O75063 55-402): T3 sequence (O75063 55-402 K312R) with R258K

hmFam20 = target: T6, hmFam20 (Hydra vulgaris, UniProt A0ABM4BCH6); assay: X-ray crystal structure, […] Å; conditions: co-crystallised with 2 mM Gal-Xyl-benzyl, 5 mM AMP-PNP, 10 mM MgCl2, pH 6.9; pocket next to the ATP-binding site; also phosphorylated by this enzyme (Figure 5b)
T6 construct: gene LOC100203383; residues 55-415, codon-optimized synthetic gene, High Five cells; for crystals His6-MBP removed with TEV and N-glycans trimmed with endoglycosidase F3; monomer

[4] = target: the molecule itself; assay: AUC; purified Fam20C alone; oligomerises in a concentration-dependent manner; ~1 mg per ml
[5] = target: T7, human Fam20C (residues 63-584), untagged (human, UniProt Q8IXL6 63-584); assay: crystal structure; human Fam20A-Fam20C complex, formed with 0.25 mM ATP and purified by size exclusion; crystals at 20 °C in 2% 1,4-dioxane, 0.1 M Bicine pH 9.0, 9% PEG 20,000; conditions: both partners purified
T7 construct: human Fam20C, residues 63-584; also called hsFam20C; source: High Five insect cells (baculovirus), conditioned medium, purified (Ni-NTA, TEV digestion, Resource Q, size exclusion); not shown: His6, N-terminal, cleaved; MBP, N-terminal, cleaved
T7 sequence (looked up): B1 chain

[6] = target: B1; assay: SEC; Fam20A mutants with human Fam20C; tetramer formation followed (Supplementary Fig. 5D); conditions: both partners purified
[7] = target: the molecule itself; assay: not stated; ceFam20 (WT or F260A/P263G) in solution (Supplementary Fig. 3C)

T6 sequence (A0ABM4BCH6 entry or part of it): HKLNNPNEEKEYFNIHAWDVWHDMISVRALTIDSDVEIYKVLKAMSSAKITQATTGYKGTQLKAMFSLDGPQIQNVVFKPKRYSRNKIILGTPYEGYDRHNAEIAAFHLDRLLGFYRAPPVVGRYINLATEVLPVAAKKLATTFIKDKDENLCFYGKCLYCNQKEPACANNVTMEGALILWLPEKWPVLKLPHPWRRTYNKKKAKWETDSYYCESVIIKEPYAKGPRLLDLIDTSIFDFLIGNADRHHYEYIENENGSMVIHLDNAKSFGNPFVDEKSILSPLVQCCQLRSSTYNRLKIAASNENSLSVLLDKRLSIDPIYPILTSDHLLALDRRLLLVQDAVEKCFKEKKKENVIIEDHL
T4 sequence (A0A1X7UVU4 entry or part of it): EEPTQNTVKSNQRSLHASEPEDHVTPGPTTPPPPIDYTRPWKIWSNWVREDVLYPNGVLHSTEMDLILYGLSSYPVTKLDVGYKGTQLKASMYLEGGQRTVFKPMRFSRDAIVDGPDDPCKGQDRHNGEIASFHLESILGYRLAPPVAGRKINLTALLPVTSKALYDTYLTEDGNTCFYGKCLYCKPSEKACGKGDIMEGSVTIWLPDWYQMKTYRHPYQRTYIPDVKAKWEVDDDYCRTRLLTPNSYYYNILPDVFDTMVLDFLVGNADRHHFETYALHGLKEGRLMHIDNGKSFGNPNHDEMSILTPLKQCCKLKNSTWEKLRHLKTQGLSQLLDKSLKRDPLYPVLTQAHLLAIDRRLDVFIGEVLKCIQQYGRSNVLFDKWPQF

Nc1ncnc2c1ncn2[C@@H]1O[C@H](COP(=O)(O)OP(=O)(O)OP(=O)(O)O)[C@@H](O)[C@H]1O [ATP]
X-ray crystal structure, 3.55 Å (Fam20A−drFam20C complex): In both structures, an ATP molecule (ATP-1) is bound to Fam20A in an inverted orientation
X-ray crystal structure, 3.30 Å [1]: In both structures, an ATP molecule (ATP-1) is bound to Fam20A in an inverted orientation

OC[C@H]1O[C@@H](O[C@@H]2CO[C@@H](OCc3ccccc3)[C@H](O)[C@H]2O)[C@H](O)[C@@H](O)[C@H]1O [Gal-Xyl, Galβ1-4Xylβ1-O-benzyl]
32P incorporation from [γ-32P]ATP, Sep-Pak C18, scintillation counting (human Fam20B (hsFam20B) [2]): in human Fam20B (K312R, Fig. 6c) completely abolishes kinase activity
32P incorporation from [γ-32P]ATP, Sep-Pak C18, scintillation counting (aqFam20): sponge (aqFam20) and hydra (hmFam20) phosphorylate the Gal-Xyl disaccharide
32P incorporation from [γ-32P]ATP, Sep-Pak C18, scintillation counting (human Fam20B (hsFam20B) [3]): phosphorylate the Gal-Xyl disaccharide with efficiencies similar to human Fam20B (hsFam20B)
X-ray crystal structure, 2.85 Å (hmFam20): we also determined the structure of hmFam20 in complex with Gal-Xyl

B1
stoichiometry N [4]: 2

B2
binding result [5]: binds

B3
binding result [6]: binds

B4
stoichiometry N [7]: 2
